Target: T1, A®1-42 peptide (Homo sapiens, UniProt P05067)
T1 construct: A®1-42 lyophilized powder (Bachem) was reconstituted in hexafluoroisopropanol (HFIP) to 1 mM; purchased Bachem
Experiment: Thioflavin T spectrofluorescence assay (ThT-assay), inhibition of A®1-42 aggregation
Assay type: biochemical
Details: 330 µM small molecule, 33 µM A®1-42 (molar ratio 10:1), 10 µM ThT, 12.8% DMSO in PBS, 24 hrs at 37° C.; mean +/- SD of two independent experiments
Description: The capacity of the compounds of the invention to inhibit the aggregation of A®1-42 peptide was determined by using the thioflavin T spectrofluorescence assay (ThT-assay) as described below.
A®1-42 lyophilized powder (Bachem) was reconstituted in hexafluoroisopropanol (HFIP) to 1 mM. The peptide solution was sonicated for 15 min at room temperature, agitated overnight, and aliquots were placed into non-siliconized microcentrifuge tubes. The HFIP was then evaporated under a stream of argon. The resulting peptide film was dried under vacuum for 10 min, tightly sealed and stored at −80° C. until used.
An A®1-42 peptide film was dissolved in DMSO to reach 400 ? M. An assay solution in PBS was prepared in non-siliconized incubation tubes to reach the following concentrations: 330 ? M small molecule, 33 ? M A®1-42, 10 ? M thioflavin T (ThT), and 12.8% DMSO. Therefore, the final molar ratio of small molecule to A®1-42 was 10:1. A positive control without a small molecule was prepared to measure maximum RFU. A negative control without A®1-42 was prepared for each small molecule. The 3-amino-pyrazole trimer (Rzepecki et. al. Synthesis 2003, 1815) was tested as a reference compound in all assays to ascertain reproducibility between independent experiments. The solutions were then incubated for 24 hrs at 37° C., and the spectrofluorescence (relative fluorescence units; RFU) read in six replicates in black 384-well assay plates (Perkin-Elmer) on a Perkin-Elmer FluoroCount spectrofluorometer. Inhibition of aggregation is expressed as mean % inhibition±1 standard deviation (SD) according to the following equation: […]

T1 sequence (P05067 672-713): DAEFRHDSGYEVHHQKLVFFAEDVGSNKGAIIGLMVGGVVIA

| Compound | inhibition at 330 µM [%] |
| --- | --- |
| c1ncc(N2CCOCC2)cc1N1CCOCC1 [Example 2] | 15.7 ± 6.1 |
| c1cc2c(C3CCNCC3)c[nH]c2cc1Nc1cncc(N2CCOCC2)c1 [Example 4] | 53.3 ± 7.6 |
| c1ncc(N2CCNCC2)cc1N1CCNCC1 [Example 5] | 60.1 ± 7.8 |
| Fc1cc(F)cc(Nc2cncc(N3CCNCC3)c2)c1 [Example 6] | 62.5 ± 7.4 |
| c1ncc(NCC2CCNCC2)cc1NCC1CCNCC1 [Example 8] | 69.5 ± 1.4 |
| Fc1cc(F)cc(Nc2cncc(NCC3CCNCC3)c2)c1 [Example 9] | 55 ± 7.4 |
| FC(F)(F)c1ccc(Nc2cncc(NCC3CCNCC3)c2)cc1 [Example 10] | 73.9 ± 4.7 |
| c1cc2ccc(Nc3cncc(NCC4CCNCC4)c3)nc2[nH]1 [Example 11] | 62.7 ± 2.1 |
| c1ncc(Nc2ccc3c(C4CCNCC4)c[nH]c3c2)cc1NCC1CCNCC1 [Example 12] | 95.4 ± 0.8 |
| c1ncc(Nc2ccc3c4c([nH]c3n2)CCCC4)cc1NCC1CCNCC1 [Example 13] | 100 ± 4.4 |
| FC1(CNc2cncc(Nc3ccc4c5c([nH]c4n3)CCCC5)c2)CCNCC1 [Example 15] | 95.7 ± 0.4 |
| FC1(CNc2cncc(Nc3ccc(C(F)(F)F)cc3)c2)CCNCC1 [Example 16] | 62.9 ± 8.2 |
| Cn1c2c(c3ccc(Nc4cncc(NCC5(F)CCNCC5)c4)nc31)CCCC2 [Example 17] | 96.5 ± 1.4 |
| FC(F)(F)c1ccc(Nc2cncc(NCC3CCOCC3)c2)cc1 [Example 20] | 51.7 ± 0.3 |

Next, values leading:

| inhibition at 330 µM [%] | Compound |
| --- | --- |
| 38 ± 0.6 | FC(F)(F)c1ccc(Nc2cncc(NCC3CCNCC3)c2)cn1 [Example 1] |
| 36.9 ± 17.2 | FC(F)(F)c1ccc(Nc2cncc(N3CCOCC3)c2)cn1 [Example 3] |
| 28.3 ± 3.2 | FC(F)(F)c1ccc(Nc2cncc(N3CCNCC3)c2)cn1 [Example 7] |
| 86.2 ± 4.7 | FC1(CNc2cncc(Nc3ccc(C(F)(F)F)nc3)c2)CCNCC1 [Example 14] |
| 29.5 ± 0.1 | CN1CCC(CNc2cncc(Nc3ccc(C(F)(F)F)nc3)c2)CC1 [Example 18] |
| 40.2 ± 6.3 | FC(F)(F)c1ccc(Nc2cncc(NCC3CCOCC3)c2)cn1 [Example 19] |

Reference: patent US20110256064A1, “Novel Compounds for the Treatment of Diseases Associated with Amyloid or Amyloid-like Proteins” (AC Immune, S.A., priority 2010, published 2011)
